Test results reported in ChEMBL document CHEMBL5465560, “Selectivity Literature for EUbOPEN Chemogenomic Library” (2024).

Assays:
[1] = target: Serine/threonine-protein kinase 35 (Homo sapiens) (UniProt Q8TDR2); experiment: Selectivity interaction (KinomeScan (DiscoverX)) EUB0000229b STK35; conditions: at 10 µM
[2] = target: T1, Serine/threonine-protein kinase ULK2 (Homo sapiens) (UniProt Q8IYT8); experiment: Selectivity interaction (KinomeScan (DiscoverX)) EUB0000092b ULK2; conditions: at 10 µM
T1 sequence (whole entry): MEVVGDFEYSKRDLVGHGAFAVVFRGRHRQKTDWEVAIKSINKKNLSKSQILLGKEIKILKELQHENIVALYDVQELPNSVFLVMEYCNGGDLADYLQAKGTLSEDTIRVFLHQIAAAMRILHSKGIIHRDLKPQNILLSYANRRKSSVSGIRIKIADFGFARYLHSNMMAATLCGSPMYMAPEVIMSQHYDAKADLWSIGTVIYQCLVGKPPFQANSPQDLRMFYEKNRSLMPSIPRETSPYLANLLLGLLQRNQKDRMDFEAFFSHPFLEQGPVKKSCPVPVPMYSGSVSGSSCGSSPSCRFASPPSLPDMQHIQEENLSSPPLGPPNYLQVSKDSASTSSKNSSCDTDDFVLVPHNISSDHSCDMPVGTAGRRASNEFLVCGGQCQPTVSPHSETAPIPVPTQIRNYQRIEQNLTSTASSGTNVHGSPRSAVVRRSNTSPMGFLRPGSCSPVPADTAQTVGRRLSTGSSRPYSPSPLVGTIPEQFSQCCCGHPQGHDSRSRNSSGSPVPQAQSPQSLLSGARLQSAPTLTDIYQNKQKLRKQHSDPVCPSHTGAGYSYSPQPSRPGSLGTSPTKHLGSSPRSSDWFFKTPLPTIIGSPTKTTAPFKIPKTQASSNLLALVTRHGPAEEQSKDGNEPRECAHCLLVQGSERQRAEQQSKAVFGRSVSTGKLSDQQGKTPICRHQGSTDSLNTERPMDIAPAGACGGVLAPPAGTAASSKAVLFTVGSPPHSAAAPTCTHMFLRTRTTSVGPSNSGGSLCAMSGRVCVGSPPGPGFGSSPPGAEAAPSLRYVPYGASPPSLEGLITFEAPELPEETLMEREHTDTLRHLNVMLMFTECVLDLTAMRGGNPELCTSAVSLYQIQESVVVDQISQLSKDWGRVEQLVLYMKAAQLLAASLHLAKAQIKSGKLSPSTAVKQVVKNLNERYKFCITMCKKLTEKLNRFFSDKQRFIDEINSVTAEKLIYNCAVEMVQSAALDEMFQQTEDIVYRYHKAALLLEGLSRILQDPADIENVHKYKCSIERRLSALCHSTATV

[3] = target: Mitogen-activated protein kinase 3 (Homo sapiens, UniProt P27361); experiment: Selectivity interaction (KinomeScan (DiscoverX)) EUB0000666a MAPK3; conditions: at 10 µM
Mitogen-activated protein kinase 3, sequence (P27361 whole entry): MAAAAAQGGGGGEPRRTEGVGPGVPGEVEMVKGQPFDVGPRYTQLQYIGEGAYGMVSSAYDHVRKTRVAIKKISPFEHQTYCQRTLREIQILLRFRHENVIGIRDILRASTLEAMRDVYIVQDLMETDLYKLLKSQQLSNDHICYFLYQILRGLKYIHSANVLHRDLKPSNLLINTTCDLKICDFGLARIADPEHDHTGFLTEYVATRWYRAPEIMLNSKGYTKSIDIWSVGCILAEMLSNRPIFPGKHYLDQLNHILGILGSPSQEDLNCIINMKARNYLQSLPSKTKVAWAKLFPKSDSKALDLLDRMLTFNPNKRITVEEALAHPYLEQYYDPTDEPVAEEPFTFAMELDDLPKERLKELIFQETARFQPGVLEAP

[4] = target: Phosphatidylinositol 4-phosphate 5-kinase type-1 gamma (Homo sapiens) (UniProt O60331); conditions: at 10 µM
Phosphatidylinositol 4-phosphate 5-kinase type-1 gamma (Homo sapiens), sequence (O60331 whole entry): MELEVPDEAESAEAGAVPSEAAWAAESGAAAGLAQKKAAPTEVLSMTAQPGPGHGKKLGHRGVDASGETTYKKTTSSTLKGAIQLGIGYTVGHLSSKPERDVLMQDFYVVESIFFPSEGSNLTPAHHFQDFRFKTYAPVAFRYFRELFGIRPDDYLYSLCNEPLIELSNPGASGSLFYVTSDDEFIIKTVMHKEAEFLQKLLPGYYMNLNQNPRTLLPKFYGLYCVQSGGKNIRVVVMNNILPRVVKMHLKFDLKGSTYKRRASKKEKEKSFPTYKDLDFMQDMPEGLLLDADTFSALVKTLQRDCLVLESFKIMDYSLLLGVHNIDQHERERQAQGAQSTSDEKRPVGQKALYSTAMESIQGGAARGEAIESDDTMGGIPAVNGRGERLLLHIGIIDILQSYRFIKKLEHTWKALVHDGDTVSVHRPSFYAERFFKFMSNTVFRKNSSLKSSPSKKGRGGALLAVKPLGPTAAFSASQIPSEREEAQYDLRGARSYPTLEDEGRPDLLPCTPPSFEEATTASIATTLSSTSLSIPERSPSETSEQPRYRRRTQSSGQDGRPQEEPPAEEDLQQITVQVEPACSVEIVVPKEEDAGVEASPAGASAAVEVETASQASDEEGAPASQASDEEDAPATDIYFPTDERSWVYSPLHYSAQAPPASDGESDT

[5] = target: T2, Receptor-type tyrosine-protein kinase FLT3 (Homo sapiens, UniProt P36888); experiment: Selectivity interaction (Kinase panel (Eurofins, enzymatic assay)) EUB0000311b FLT3
T2 sequence (P36888 whole entry): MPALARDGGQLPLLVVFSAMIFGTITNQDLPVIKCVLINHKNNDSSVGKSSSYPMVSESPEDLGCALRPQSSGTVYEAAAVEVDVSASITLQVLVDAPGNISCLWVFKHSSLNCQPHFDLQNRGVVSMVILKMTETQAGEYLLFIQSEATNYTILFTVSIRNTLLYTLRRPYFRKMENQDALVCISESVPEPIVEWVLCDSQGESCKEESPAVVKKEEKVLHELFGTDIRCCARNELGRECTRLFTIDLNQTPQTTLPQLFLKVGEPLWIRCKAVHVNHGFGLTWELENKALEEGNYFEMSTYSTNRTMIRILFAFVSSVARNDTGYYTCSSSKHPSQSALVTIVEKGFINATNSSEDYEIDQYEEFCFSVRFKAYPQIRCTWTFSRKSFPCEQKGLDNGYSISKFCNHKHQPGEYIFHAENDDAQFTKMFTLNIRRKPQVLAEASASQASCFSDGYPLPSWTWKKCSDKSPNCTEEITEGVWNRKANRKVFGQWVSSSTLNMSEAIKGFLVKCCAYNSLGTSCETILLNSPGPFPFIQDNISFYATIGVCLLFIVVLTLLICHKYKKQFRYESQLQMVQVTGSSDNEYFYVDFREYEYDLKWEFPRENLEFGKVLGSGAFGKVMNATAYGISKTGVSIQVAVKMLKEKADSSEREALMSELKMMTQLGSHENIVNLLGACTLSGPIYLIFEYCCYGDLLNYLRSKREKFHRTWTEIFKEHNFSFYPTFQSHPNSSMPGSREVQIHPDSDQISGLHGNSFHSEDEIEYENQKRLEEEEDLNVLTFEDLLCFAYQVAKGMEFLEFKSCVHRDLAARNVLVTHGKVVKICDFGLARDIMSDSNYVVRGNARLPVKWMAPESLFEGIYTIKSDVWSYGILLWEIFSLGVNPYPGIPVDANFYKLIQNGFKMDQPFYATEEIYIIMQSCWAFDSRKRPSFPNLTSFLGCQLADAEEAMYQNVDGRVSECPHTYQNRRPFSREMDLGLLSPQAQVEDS

[6] = target: Cyclin-dependent kinase 7 (Homo sapiens, UniProt P50613); experiment: Selectivity interaction (ActivX KiNativ screen (kinase selectivity in THP-1 cell lysates)) EUB0000639a CDK7; format: subcellular; conditions: lysate, at 5 µM
Cyclin-dependent kinase 7, sequence (P50613 whole entry): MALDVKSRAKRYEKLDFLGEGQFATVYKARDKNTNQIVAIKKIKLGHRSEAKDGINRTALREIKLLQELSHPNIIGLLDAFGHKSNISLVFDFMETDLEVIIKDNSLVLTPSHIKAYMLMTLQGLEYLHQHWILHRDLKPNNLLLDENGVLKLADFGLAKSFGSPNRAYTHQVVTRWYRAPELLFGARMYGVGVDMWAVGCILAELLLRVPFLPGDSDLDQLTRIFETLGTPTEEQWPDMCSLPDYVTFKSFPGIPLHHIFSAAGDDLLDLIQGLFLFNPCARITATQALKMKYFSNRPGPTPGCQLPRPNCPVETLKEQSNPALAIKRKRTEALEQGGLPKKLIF

[7] = target: T3, Muscarinic acetylcholine receptor M2 (Homo sapiens) (UniProt P08172); experiment: Selectivity interaction (Panel of kinases, GPCRs, ion channels and transporters (enzymatic assay)) EUB0000223bCl CHRM2
T3 sequence (whole entry): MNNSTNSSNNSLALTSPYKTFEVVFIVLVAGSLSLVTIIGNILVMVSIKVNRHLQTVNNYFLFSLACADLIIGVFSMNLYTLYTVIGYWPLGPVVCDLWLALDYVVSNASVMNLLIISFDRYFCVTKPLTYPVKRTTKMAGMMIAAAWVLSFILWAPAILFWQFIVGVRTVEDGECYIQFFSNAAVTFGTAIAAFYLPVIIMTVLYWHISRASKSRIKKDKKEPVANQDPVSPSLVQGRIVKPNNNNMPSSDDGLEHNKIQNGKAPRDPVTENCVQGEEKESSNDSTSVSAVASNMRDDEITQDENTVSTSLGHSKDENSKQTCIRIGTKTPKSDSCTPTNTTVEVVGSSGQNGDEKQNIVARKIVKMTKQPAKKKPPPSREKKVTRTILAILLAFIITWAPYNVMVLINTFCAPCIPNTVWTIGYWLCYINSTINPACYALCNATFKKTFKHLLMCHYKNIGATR

[8] = target: Homeodomain-interacting protein kinase 1 (Homo sapiens, UniProt Q86Z02); experiment: Selectivity interaction (Enzymatic assay (Eurofins)) EUB0001049a HIPK1
Homeodomain-interacting protein kinase 1, sequence (Q86Z02 whole entry): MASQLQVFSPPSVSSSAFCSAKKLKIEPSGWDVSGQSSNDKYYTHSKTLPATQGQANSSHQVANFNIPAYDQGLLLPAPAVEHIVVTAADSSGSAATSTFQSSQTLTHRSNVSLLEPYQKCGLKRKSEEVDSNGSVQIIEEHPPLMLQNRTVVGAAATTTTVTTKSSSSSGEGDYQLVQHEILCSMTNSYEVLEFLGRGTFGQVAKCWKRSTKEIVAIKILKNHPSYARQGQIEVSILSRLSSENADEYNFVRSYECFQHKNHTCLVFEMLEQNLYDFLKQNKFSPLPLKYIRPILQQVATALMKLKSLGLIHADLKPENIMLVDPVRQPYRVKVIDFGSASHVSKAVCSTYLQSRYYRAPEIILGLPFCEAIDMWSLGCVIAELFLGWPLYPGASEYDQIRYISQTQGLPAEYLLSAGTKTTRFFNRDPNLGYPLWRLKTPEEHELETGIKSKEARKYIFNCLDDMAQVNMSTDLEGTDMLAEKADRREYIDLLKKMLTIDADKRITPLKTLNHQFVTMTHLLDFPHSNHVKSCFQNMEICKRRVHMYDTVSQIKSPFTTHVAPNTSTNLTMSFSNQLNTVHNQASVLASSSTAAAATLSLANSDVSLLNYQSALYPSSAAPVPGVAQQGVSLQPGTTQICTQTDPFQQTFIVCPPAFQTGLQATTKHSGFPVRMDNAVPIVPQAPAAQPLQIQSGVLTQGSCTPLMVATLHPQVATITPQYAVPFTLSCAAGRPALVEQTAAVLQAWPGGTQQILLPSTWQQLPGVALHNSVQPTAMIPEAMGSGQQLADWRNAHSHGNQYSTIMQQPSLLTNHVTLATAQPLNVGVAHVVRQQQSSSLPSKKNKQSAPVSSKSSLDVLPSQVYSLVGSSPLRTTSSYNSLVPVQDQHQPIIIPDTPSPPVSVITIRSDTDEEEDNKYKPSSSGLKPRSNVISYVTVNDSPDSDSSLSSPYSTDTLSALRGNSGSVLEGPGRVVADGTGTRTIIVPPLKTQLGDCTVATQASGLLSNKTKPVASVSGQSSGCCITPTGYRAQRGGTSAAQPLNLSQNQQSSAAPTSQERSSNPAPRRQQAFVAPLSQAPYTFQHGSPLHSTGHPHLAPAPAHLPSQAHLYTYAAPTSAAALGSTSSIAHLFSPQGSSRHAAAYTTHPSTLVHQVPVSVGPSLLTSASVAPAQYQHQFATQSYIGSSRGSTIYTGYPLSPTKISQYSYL

[9] = target: Cyclin-dependent kinase 5 (Homo sapiens, UniProt Q00535); experiment: Selectivity interaction (Kinase screening (Nanosyn)) EUB0000604a CDK5
Cyclin-dependent kinase 5, sequence (Q00535 whole entry, looked up): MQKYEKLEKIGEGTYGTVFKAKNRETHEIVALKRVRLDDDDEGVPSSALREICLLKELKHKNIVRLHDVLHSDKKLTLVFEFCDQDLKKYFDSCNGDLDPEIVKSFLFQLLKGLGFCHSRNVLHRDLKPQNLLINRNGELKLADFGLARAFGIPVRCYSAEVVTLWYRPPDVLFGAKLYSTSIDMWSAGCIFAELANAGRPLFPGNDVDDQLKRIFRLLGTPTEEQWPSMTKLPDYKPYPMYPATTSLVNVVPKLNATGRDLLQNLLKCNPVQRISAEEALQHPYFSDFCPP

Serine/threonine-protein kinase 35 (Homo sapiens), sequence (Q8TDR2 whole entry): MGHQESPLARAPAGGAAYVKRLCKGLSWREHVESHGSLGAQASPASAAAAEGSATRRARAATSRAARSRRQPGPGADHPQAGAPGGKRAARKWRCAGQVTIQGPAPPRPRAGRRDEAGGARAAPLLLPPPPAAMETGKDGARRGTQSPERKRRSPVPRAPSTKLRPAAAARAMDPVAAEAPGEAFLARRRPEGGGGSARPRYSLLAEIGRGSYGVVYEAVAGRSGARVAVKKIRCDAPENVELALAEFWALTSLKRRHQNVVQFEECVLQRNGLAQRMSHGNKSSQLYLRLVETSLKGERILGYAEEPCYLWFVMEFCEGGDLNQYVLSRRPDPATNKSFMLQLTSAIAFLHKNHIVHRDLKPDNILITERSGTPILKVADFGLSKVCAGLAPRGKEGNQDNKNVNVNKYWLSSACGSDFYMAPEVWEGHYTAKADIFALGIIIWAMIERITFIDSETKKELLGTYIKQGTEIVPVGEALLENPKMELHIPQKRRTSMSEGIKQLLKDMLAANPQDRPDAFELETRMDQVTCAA

Structure (SMILES): COc1cc(N(C)c2ccnc3ccc(C(F)(F)F)cc23)cc(OC)c1OC
- % binding [1]: 90%

Structure (SMILES): CCC(=O)N1CCN(c2ccc(-n3c(=O)ccc4cnc5ccc(-c6cnc7ccccc7c6)cc5c43)cc2C(F)(F)F)CC1
- % of control [2]: 75%

Structure (SMILES): O=C(NOC[C@H](O)CO)c1ccc(F)c(F)c1Nc1ccc(I)cc1F
- % of control [3]: 86%

Structure (SMILES): Cc1cc([C@@H](C)Nc2ccccc2C(=O)O)c2nc(N3CCOCC3)cc(=O)n2c1 [AZD-6482]
- % of control [4]: 63%

Structure (SMILES): CCc1ccccc1C(=O)Nc1n[nH]c2c(C)c(F)c(C3C(C#N)=C(C)N(C)C(C)=C3C#N)cc12 [BAY-3827]
- IC50 [5]: 0.124 µM

Structure (SMILES): CC[C@@H]1[C@H](F)C(=O)N[C@@H]1COc1nccc2cc(C(N)=O)c(OC)cc12 [ZIMLOVISERTIB]
- % of inhibition [6]: 44.8%

Structure (SMILES): COc1cc(C(=O)N2CC[C@@H](O)[C@@H](N)C2)cc2nc(-c3cc4ccccc4n3CC3CC3)n(C)c12
- pXC50 [7]: < 4.8 M

Structure (SMILES): COc1cc(Nc2nc(C)cc(-c3cnn4nc(OC)ccc34)n2)cc(C(F)(F)F)c1
- IC50 [8]: > 10 µM

Structure (SMILES): Cc1cnc(Nc2ccc(F)cc2Cl)nc1-c1c[nH]c(C(=O)N[C@H](CO)c2cccc(Cl)c2)c1
- % of inhibition [9]: 24%
